Experimental data: ChEMBL document CHEMBL4261544, “Structure-metabolism-relationships in the microsomal clearance of piperazin-1-ylpyridazines” (Medchemcomm, 2017)

Columns and labels:
[1] = Extraction ratio in mouse liver microsomes at 10 uM in presence of NADPH by LC-MS/MS analysis; format: ADME, microsome; settings: read-out: ERH
[2] = Half life in human liver microsomes at 10 uM in presence of NADPH by LC-MS/MS analysis; format: ADME, microsome; settings: for half-life at 10 µM: liver microsomes
[3] = Half life in mouse liver microsomes at 10 uM in presence of NADPH by LC-MS/MS analysis; format: ADME, microsome; settings: for half-life at 10 µM: liver microsomes
[4] = Extraction ratio in human liver microsomes at 10 uM in presence of NADPH by LC-MS/MS analysis; format: ADME, microsome; settings: read-out: ERH
[5] = Metabolic stability in mouse liver microsomes assessed as parent compound remaining at 10 uM in presence of NADPH after 60 mins by LC-MS/MS analysis; format: ADME, microsome; settings: 1 h
[6] = Metabolic stability in human liver microsomes assessed as parent compound remaining at 10 uM in presence of NADPH after 60 mins by LC-MS/MS analysis; format: ADME, microsome; settings: 1 h
[7] = Drug metabolism in human liver microsomes assessed as 6-(4-(o-tolylsulfonyl)piperazin-1-yl)pyridazine-3-carboxamide formation at 10 uM in presence of NADPH after 60 mins by LC-MS/MS analysis; format: ADME, microsome; settings: 1 h
[8] = Drug level in human liver microsomes treated with N-benzyl-6-(4-(o-tolylsulfonyl)piperazin-1-yl)pyridazine-3-carboxamide at 10 uM in presence of NADPH after 60 mins by LC-MS/MS analysis; format: ADME, microsome; settings: 1 h
[9] = Drug level in mouse liver microsomes treated with N-benzyl-6-(4-(o-tolylsulfonyl)piperazin-1-yl)pyridazine-3-carboxamide at 10 uM in presence of NADPH after 60 mins by LC-MS/MS analysis; format: ADME, microsome; settings: 1 h
[10] = Drug metabolism in mouse liver microsomes assessed as oxidation at benzene ring A at 10 uM in presence of NADPH after 30 to 60 mins by LC-MS/MS analysis; format: ADME, microsome
[11] = Drug metabolism in mouse liver microsomes assessed as oxidation at benzene ring D at 10 uM in presence of NADPH after 30 to 60 mins by LC-MS/MS analysis; format: ADME, microsome
[12] = Drug metabolism in mouse liver microsomes assessed as oxidation at benzene ring C at 10 uM in presence of NADPH after 30 to 60 mins by LC-MS/MS analysis; format: ADME, microsome
[13] = Drug metabolism in mouse liver microsomes assessed as oxidation at benzene ring B at 10 uM in presence of NADPH after 30 to 60 mins by LC-MS/MS analysis; format: ADME, microsome
[14] = Aqueous solubility in pH 7.4 PBS buffer; format: physicochemical

hepatic extraction ratio at 10 µM [1] | half-life at 10 µM [2] | half-life at 10 µM [3] | hepatic extraction ratio at 10 µM [4] | SMILES | further results
0.7 | 34 min | 26 min | 0.56 | Cc1ccccc1S(=O)(=O)N1CCN(c2ccc(C(=O)NCc3ccc(F)cc3)nn2)CC1 | 
0.97 |  |  | 0.93 | Cc1ccccc1S(=O)(=O)N1CCN(c2ccc(C(=O)NCc3ccccc3)nn2)CC1 | Stability [5]: 42%; Stability [6]: 62%; t1/2 ([2]; microsomes, 10 µM): 3 min; t1/2 ([3]; microsomes, 10 µM): 2 min; Drug metabolism [7]: Metabolite_Notdetected
 |  | 8 min |  | Cc1ncccc1S(=O)(=O)N1CCN(c2ccc(C(=O)NCc3ccc(F)cc3)nn2)CC1 | 
 |  | 13 min |  | O=C(NCc1ccc(F)cc1)c1ccc(N2CCN(S(=O)(=O)c3cccnc3Cl)CC2)nn1 | 
0.97 | 4 min | 2 min | 0.92 | Cc1ccccc1S(=O)(=O)N1CCN(c2ccc(C(=O)NCc3cccs3)nn2)CC1 | 
0.97 | 5 min | 2 min | 0.89 | O=C(NCc1ccccc1)c1ccc(N2CCN(S(=O)(=O)c3ccccc3Cl)CC2)nn1 | 
 |  | 19 min |  | Nc1ncccc1S(=O)(=O)N1CCN(c2ccc(C(=O)NCc3ccc(F)cc3)nn2)CC1 | 
0.98 | 1 min | 2 min | 0.97 | Cc1ccccc1S(=O)(=O)N1CC2(CN(c3ccc(C(=O)NCc4ccc(F)cc4)nn3)C2)C1 | 
0.8 |  | 15 min |  | Cc1cc(F)ccc1S(=O)(=O)N1CCN(c2ccc(C(=O)NCc3ccc(F)cc3)nn2)CC1 | 
 |  | 23 min |  | Cc1nc(C(F)(F)F)ccc1S(=O)(=O)N1CCN(c2ccc(C(=O)NCc3ccc(F)cc3)nn2)CC1 | 
0.75 | 27 min | 20 min | 0.61 | O=C(NCc1ccccc1)c1ccc(N2CCC(S(=O)(=O)c3cccc(Cl)c3Cl)CC2)nn1 | 
 |  |  |  | Cc1ccccc1S(=O)(=O)N1CCN(c2ccc(C(N)=O)nn2)CC1 | Drug metabolism [8]: Metabolite_Detected; Drug metabolism [9]: Metabolite_Detected
0.66 |  | 31 min |  | O=C(NCc1ccc(F)cc1)c1ccc(N2CCN(S(=O)(=O)c3ccccc3C(F)(F)F)CC2)nn1 | Drug metabolism [10]: Metabolite_Notdetected; Drug metabolism [11]: Metabolite_Detected; Drug metabolism [12]: Metabolite_Detected; Drug metabolism [13]: Metabolite_Detected
0.94 | 2 min | 5 min | 0.96 | Cc1ccccc1S(=O)(=O)N1CC=C(c2ccc(C(=O)NCc3ccc(F)cc3)nn2)CC1 | 
 |  | 16 min |  | N#Cc1ncccc1S(=O)(=O)N1CCN(c2ccc(C(=O)NCc3ccc(F)cc3)[n+]([O-])n2)CC1 | 
 |  | 72 min |  | O=C(NCc1ccc(F)cc1)c1ccc(N2CCN(S(=O)(=O)c3cccnc3O)CC2)nn1 | 
0.77 | 30 min | 18 min | 0.59 | Cc1ccccc1S(=O)(=O)N1CCN(c2ccc(C(=O)NCc3cncs3)nn2)CC1 | 
 |  | 2 min |  | O=C(NCc1ccc(F)cc1)c1ccc(N2CCN(S(=O)(=O)c3cccnc3N3CCOCC3)CC2)nn1 | 
0.81 | 16 min | 14 min | 0.73 | O=C(NCc1ccccc1)c1ccc(N2CCN(S(=O)(=O)c3cccc(Cl)c3Cl)CC2)nn1 | 
0.47 | 12 min | 68 min | 0.78 | Cc1ccc(F)cc1S(=O)(=O)N1CCN(c2ccc(C(=O)NCc3ccc(F)cc3)nn2)CC1 | solubility [14]: Insoluble
 | 0.35 min | 113 min | 0.29 | O=C(NCc1ccc(F)cc1)c1ccc(N2CC3(C2)CN(S(=O)(=O)c2cccnc2Cl)C3)nn1 | 
 |  | 6 min |  | O=C(NCc1ccc(F)cc1)c1ccc(N2CCN(S(=O)(=O)c3cccnc3C3CC3)CC2)nn1 | 
0.95 | 2 min | 3 min | 0.95 | Cc1ccccc1S(=O)(=O)N1CCN(c2cnc(C(=O)NCc3ccc(F)cc3)cn2)CC1 | 
0.84 |  | 12 min |  | O=C(NCc1ccc(F)cc1)c1ccc(N2CCN(S(=O)(=O)c3ccc(F)cc3C(F)(F)F)CC2)nn1 | Drug metabolism [10]: Metabolite_Notdetected; Drug metabolism [11]: Metabolite_Detected; Drug metabolism [12]: Metabolite_Detected; Drug metabolism [13]: Metabolite_Detected
 |  | 5 min |  | N#Cc1ncccc1S(=O)(=O)N1CCN(c2ccc(C(=O)NCc3ccc(F)cc3)nn2)CC1 | 
